{"source": "patent US20180042930A1", "about": "“METHODS OF TREATMENT OF MALIGNANCIES” (Celgene Corporation, priority 2016, published 2018)", "key": {"2-HG plasma levels": {"tested_on": "2-HG plasma levels", "assay": "Phase 1/2 study: pharmacodynamic response, 2-HG plasma levels", "assay_type": "in vivo, human", "protocol": "Dose Escalation Phase: The dose escalation phase utilized a standard “3+3” design. During the dose escalation phase, consented eligible subjects with relapsed or refractory acute myelogenous leukemia (AML), untreated AML≧60 years of age who were not candidates for standard therapy, or myelodysplastic syndrome with refractory anemia with excess blasts were enrolled into sequential cohorts of increasing doses of COMPOUND A not to exceed 650 mg QD dose. Each dose cohort enrolled a minimum of 3 subjects. The first 3 subjects enrolled in each dosing cohort during the dose escalation portion of the study received a single dose of study drug on Day −3 (i.e., 3 days prior to the start of daily dosing) and underwent safety and PK/PD assessments over 72 hours to evaluate drug concentrations and 2-HG and α-KG levels. The next dose of study drug was on Cycle 1 Day 1 (C1D1) at which time daily dosing began. The initial dosing schedule was twice daily (approximately every 12 hours). Based on the emerging data, a once daily dosing schedule also has been implemented. […]\nSubjects in the dose escalation phase and Part 1 Expansion also underwent PK/PD assessments over a 10-hour period on C1D15, C2D1, and C4D1. […] Available bone marrow biopsy samples also were assessed for 2-HG and α-KG levels. […]"}, "[1]": {"tested_on": "patients with MDS and mIDH2", "assay": "Example 3: safety, treatment-emergent adverse events", "excerpt": "A DLT was defined as outlined below.\nPatients were relapsed or refractory to prior MDS therapy (Tx) or were not candidates for standard therapies. […] Evaluable patients required a response assessment at Cycle 2 Day 1 or later, or discontinued before assessment. Overall survival (OS) was estimated using Kaplan-Meier methods. Next-generation sequencing identified pre-existing co-occurring genomic alterations using the FoundationOne Heme test on purified mononuclear cells from BM or PB, to assess relationships between co-mutational status and clinical response."}}}
{"smiles": "CC(C)(O)CNc1nc(Nc2ccnc(C(F)(F)F)c2)nc(-c2cccc(C(F)(F)F)n2)n1.CS(=O)(=O)O", "note": "[COMPOUND A, mesylate salt of 2-methyl-1-[(4-[6-(trifluoromethyl)pyridin-2-yl]-6-{[2-(trifluoromethyl)pyridin-4-yl]amino}-1,3,5-triazin-2-yl)amino]propan-2-ol]", "values": [{"measurement": "inhibition of 2-HG plasma levels", "setting": "2-HG plasma levels; most subjects with R140Q mutation, all doses, sustained reduction by Day 1 of Cycle 2", "result": "up to 98%"}, {"measurement": "exposure and inhibition of 2-HG versus dose", "setting": "2-HG plasma levels; subjects with R172K mutation", "result": "Increasing dose was associated with higher exposure and inhibition of 2-HG"}, {"measurement": "Grade 3-4 TEAE Anemia", "setting": "[1]; MDS patients n=17", "result": 18, "unit": "%"}, {"measurement": "Grade 3-4 TEAE Dyspnea", "setting": "[1]; MDS patients n=17", "result": 12, "unit": "%"}, {"measurement": "Grade 3-4 TEAE Tumor lysis syndrome", "setting": "[1]; MDS patients n=17", "result": 12, "unit": "%"}, {"measurement": "Grade 3-4 TEAE hypokalemia", "setting": "[1]; MDS patients n=17", "result": 18, "unit": "%"}, {"measurement": "Grade 3-4 TEAE pneumonia", "setting": "[1]; MDS patients n=17", "result": 24, "unit": "%"}, {"measurement": "Grade 3-4 TEAE thrombocytopenia", "setting": "[1]; MDS patients n=17", "result": 24, "unit": "%"}, {"measurement": "Grade 3-4 treatment-emergent AEs (TEAEs)", "setting": "[1]; MDS patients n=17", "result": 82, "unit": "%"}, {"measurement": "Grade 3-4 treatment-emergent AEs (TEAEs), patients", "setting": "[1]; MDS patients n=17", "result": 14, "unit": "patients"}, {"measurement": "grade 3-4 drug-related TEAE, patients", "setting": "[1]; MDS patients n=17", "result": "Six"}, {"measurement": "treatment related deaths", "setting": "[1]; MDS patients n=17", "result": "No treatment related deaths were reported"}, {"measurement": "COMPOUND A-related serious TEAEs, patients", "setting": "[1]; n=17, tumor lysis syndrome [2], blood bilirubin increased, transaminitis", "result": 4, "unit": "patients"}, {"measurement": "Grade 3-4 TEAE Hyperbilirubinemia", "setting": "[1]; n=17, unconjugated, includes hyperbilirubinemia and blood bilirubin increased", "result": 30, "unit": "%"}]}
